Read-outs that look alike come from different tables or passages of the source.
What was measured:
[1] = test system: secondary alcohol dehydrogenase (SADH); test: Purified secondary alcohol dehydrogenase activity (formation of reduced NAD); format: biochemical, Pseudomonas sp. ATCC 21439
Procedure: Secondary alcohol dehydrogenase (SADH) from an obligate methanol utilizer, Pseudomonas sp. ATCC 21439 was purified as follows. […] 0.05 M sodium phosphate buffer, pH 7.0 with 0.5 mM dithiothretol (buffer A) and were disrupted sonically (5×1 min.). The crude extract was separated by centrifugation. The crude extract was heat-treated at 50° C. in a water bath for 10 minutes. The resulting precipitate was removed by centrifugation. To the supernatant solution, 25 ml of protamine sulfate solution (2% solution in 0.1 M Tris base) was added dropwise with continuous stirring. After standing for 30 minutes, the extract was centrifuged. The supernatant solution was fractionated with solid ammonium sulfate. The material precipitating between 30 and 60% saturation was collected and was dialized overnight against buffer A. The The dialized material was applied to a DEAE-cellulose column (3 cm by 35 cm) that had been equilibrated with buffer A. The secondary alcohol dehydrogenase activity was eluted in the void volume. This DEAE-cellulose eluate was concentrated by ammonium sulfate fractionation. Material precipitating between 30 and 50% ammonium sulfate saturation was collected by centrifugation and dialyzed overnight against A. This fraction was further washed and filtered through an Amicon unit with XM 50 membrane. The concentrated fraction (6 ml) inside the Amicon unit was applied to an Affi-Gel Blue column (0.8 cm×18 cm) which had been equilibrated with buffer A for affinity chromatography. The column was washed overnight with buffer A (0.18 ml./min.) and then was eluted with buffer A containing 5 mM NAD. Each 1 ml. fraction was collected.
The purified secondary alcohol dehydrogenase enzyme (SADH) may be used directly for converting C3 -C6 secondary alcohols to the corresponding methyl ketones by the procedures described above; however, a source of NAD^+ must be added to the reaction medium. One can determine the NAD-linked secondary alcohol dehydrogenase activity with a fluorescence spectrophotometer (Perkin Elmer, Model MPF 44A) by following the formation of reduced NAD (Ex 340 nm, Em 460 nm). The assay system (3 ml.) will typically contain: sodium phosphate buffer pH 7.0, 150 μmol; NAD 1.0 μmol; a given amount of enzyme preparation; and 20 μmol secondary alcohol. The reaction is started by the addition of secondary alcohol. One unit of SADH enzyme activity represents the reduction of one nmole NAD per minute.
The effect of metal-chelating agents and thioreagents on the activity of the purified SADH enzyme were studied. […] The possibility of ethanol or n-propanol as an inhibitor was studied.

[2] = test system: P(40) particulate fraction of Methylosinus sp. (CRL-15, NRRL B-11,202); test: Oxidation of n-alkenes and n-alkanes by P(40) particulate fraction; format: biochemical; details: substrate oxidized to its epoxide or alcohol, 30° C.
[3] = test system: secondary alcohol dehydrogenase; test: Purified yeast secondary alcohol dehydrogenase: substrates, electron acceptors, inhibitors, stoichiometry; format: biochemical, Pichia sp. NRRL Y-11,328
Procedure: Large scale cultures of Pichia sp. NRRL Y-11,328 were grown with aeration at 30° C. in a 14-liter New Brunswick f fermentor in a mineral salt medium containing methanol (0.4%, v/v) as the sole carbon source. The cells (200 g., wet weight) were suspended in […] sodium phosphate buffer, pH 7.0, containing 1 mM dithiothreitol (buffer A), and crude extracts were prepared as described previously. To the crude extracts, 18 ml. of protamine sulfate solution [2% solution in 0.1 M tris (hydroxymethyl) aminomethane (tris) base] was added dropwise with continuous stirring. After standing for 30 min., the extracts were centrifuged at 20,000×g. for 60 min. The supernatant solution was fractionated with solid ammonium sulfate. Extracts were brought to 50% of saturation with respect to ammonium sulfate by addition of 313 g. of the salt per liter of extract. Precipitated proteins was removed by centrifugation, and 137 g. of ammonium sulfate was added per liter of the supernatant liquid to bring it to 70% of saturation. Material precipitating between 50 and 70% of saturation was collected by centrifugation and dissolved in buffer A. This preparation was dialyzed overnight against buffer A, and the dialyzed material was applied to a DEAE-cellulose column (5×40 cm) that had been equilibrated with buffer A. The sample was washed with 200 ml. of buffer A and eluted with 2 liters of buffer A that contained NaCl in a linear gradient running from a concentration of 0 to 0.5 M. Fractions of 15 ml. were collected. Fractions containing secondary alcohol dehydrogenase activity were pooled and were termed DEAE-cellulose eluate. The DEAE-cellulose eluate was concentrated by ammonium sulfate fractionation.
Secondary alcohol dehydrogenase activity was measured spectrophotometrically at 340 nm with a NAD^+ as an electron acceptor. The reaction mixture, in a total 3.0 ml., contained 50 mM phosphate buffer, pH 8.0, 5μ moles NAD^+, crude extracts, and subtrate. The reactions were started by addition of 100 μl of 0.1 M substrate and the rate of NAD^+ reduction was measured. Protein concentration was determined by the method of Lowry et al.
The substrate specificity of the purified secondary alcohol dehydrogenase was examined spectrophotometrically.

[4] = test system: Methylococcus capsulatus (CRL Ml, NRRL B-11,219); test: Effect of inhibitors on epoxidation of propylene and hydroxylation of methane, cell-containing enzyme preparation; format: cell-based; details: Methylococcus capsulatus, NRRLB11, 1 h
[5] = test system: Methylobacterium organophilum (CRL 26, NRRL B-11,222); test: as above; format: cell-based; details: NRRLB11, 1 h
[6] = test system: Methylosinus trichosporium OB3b (NRRL B-11,196); test: as above; format: cell-based; details: NRRLB11, 1 h
[7] = test system: P(40) particulate fraction of Methylosinus sp. (CRL-15, NRRL B-11,202); test: Effect of metals on propylene epoxidation and methane hydroxylation by P(40) fraction; format: biochemical; details: metal 10^-3 M; for Methane-Oxidizing Activity in presence of metal: control 4.0; for Propylene-Oxidizing Activity in presence of metal: control […]
Procedure: The oxidation of methane and propylene by particulate [(P)40 and(P)80] fractions and soluble [S(80)] fraction was measured at 30° C. by estimating the production of methanol and propylene oxide, respectively. The reaction mixtures contained in 1.0 ml: 150 mM potassium phosphate buffer, pH 7.0 containing 5 mM MgCl2, 0.6 ml; 10 μmoles NADH, and cellular fraction.
Reaction mixtures were contained in 10 ml vials at 4° C. Vials were sealed with rubber caps. The gaseous phase in the vials was removed using vacuum and then was replaced with a gas mixture of methane or propylene and oxygen at a 1:1, v/v ratio. Oxidation of other gaseous n-alkanes and n-alkenes was examined as described above. For liquid substrates, 10 μl of substrate was used directly.
Since the methane mono-oxygenase from methane-utilizing bacteria is a copper or iron-containing protein (Tonge et al., J. Biochem., 161: 333-344 (1977)), we have examined the effect of copper and iron salts on the oxidation of methane and propylene by the P(40) particulate fraction of Methylosinus sp. (CRL-15, NRRL B-11,202). The rate of hydroxylation of methane to methanol and epoxidation of propylene to propylene oxide was increased twofold in the presence of added copper salts (Table XII).

[8] = purified SADH, each inhibitor 1 mM, measured spectrofluorometrically
[9] = examined spectrophotometrically
[10] = read-out: % Inhibition, Epoxidation
[11] = read-out: % Inhibition, Hydroxylation

[Cu+2] [cupric]
% inhibition of SADH activity [1, 8]: 25%

C=CCC [1-Butene]
Rate of Product Formation [2]: 2.18 μ moles/hr/mg of protein

CCC(O)CO (stereo not drawn) [butane 1,2-diol]
oxidation by the purified secondary alcohol dehydrogenase [3, 9]: not oxidized
relative percent rate of oxidation by SADH ([1]; 2-butanol = 100%): not oxidized

O=C(O)CCC(=O)O [succinic acid]
relative percent rate of oxidation by SADH ([1]; 2-butanol = 100%): not oxidized

cytochrome c
electron acceptor for the purified enzyme [3]: could not act as electron carrier

CC(O)C(C)O (stereo not drawn) [butane 2,3-diol]
substrate specificity of purified SADH [1]: lower rate
relative percent rate of oxidation by SADH ([1]; 2-butanol = 100%): 2.5%

c1c[nH]cn1 [Imidazole]
inhibition at 1000 µM [4, 10]: 95%
inhibition at 1000 µM [4, 11]: 95%
inhibition at 1000 µM [5, 10]: 100%
inhibition at 1000 µM [5, 11]: 100%
inhibition at 1000 µM [6, 10]: 95%
inhibition at 1000 µM [6, 11]: 90%
inhibition of secondary alcohol dehydrogenase activity [3]: strongly inhibited

O=S(=O)([O-])[O-].[Cu+2] [Cupric Sulfate]
Methane-Oxidizing Activity in presence of metal [7]: 7.1 μmoles/hr/mg protein
Propylene-Oxidizing Activity in presence of metal [7]: 9.0 μmoles/hr/mg protein
inhibition of secondary alcohol dehydrogenase activity [3]: inhibited

CC(C)CO [isobutanol]
relative percent rate of oxidation by SADH ([1]; 2-butanol = 100%): not oxidized

CCCCC(C)O (stereo not drawn) [2-hexanol]
oxidation by the purified secondary alcohol dehydrogenase [3, 9]: catalyzed the oxidation
substrate specificity of purified SADH [1]: lower rate
relative percent rate of oxidation by SADH ([1]; 2-butanol = 100%): 2%

CC(O)CCO (stereo not drawn) [butane 1,3-diol]
oxidation by the purified secondary alcohol dehydrogenase [3, 9]: not oxidized
substrate specificity of purified SADH [1]: lower rate
relative percent rate of oxidation by SADH ([1]; 2-butanol = 100%): 2%

O=C(O)c1cc[c]([Hg+])cc1.[OH-] [p-hydroxymercuribenzoate]
inhibition of secondary alcohol dehydrogenase activity [3]: strongly inhibited
% inhibition of SADH activity [1, 8]: 100%

OC1CCCCC1 [cyclohexanol]
substrate specificity of purified SADH [1]: lower rate
relative percent rate of oxidation by SADH ([1]; 2-butanol = 100%): 4%

[Mn+2] [Mn^++]
% inhibition of SADH activity [1, 8]: 0%

CCN1C(=O)C=CC1=O [N-ethylmalemide]
% inhibition of SADH activity [1, 8]: 6%
% inhibition of SADH activity ([1]; purified SADH, each inhibitor 1 mM, measured spectrofluorometrically, listed as N-ethylmaleimide): not inhibited

CO [methanol]
oxidation by the purified secondary alcohol dehydrogenase [3, 9]: not oxidized

[Fe+2] [ferrous]
% inhibition of SADH activity [1, 8]: 50%

Oc1ccccc1 [phenol]
relative percent rate of oxidation by SADH [1]: not oxidized

CC(O)CO (stereo not drawn) [1,2-propandiol]
oxidation by the purified secondary alcohol dehydrogenase [3, 9]: not oxidized

CCCO [n-propanol]
oxidation by the purified secondary alcohol dehydrogenase [3]: not oxidized
% inhibition of SADH activity [1]: did not inhibit

CC [Ethane]
Rate of Product Formation [2]: 3.2 μ moles/hr/mg of protein

N#C[S][Hg][S]C#N [mercuric thiocyanate]
inhibition of secondary alcohol dehydrogenase activity [3]: inhibited

Ferrous Sulfate
Methane-Oxidizing Activity in presence of metal [7]: 4.8 μmoles/hr/mg protein
Propylene-Oxidizing Activity in presence of metal [7]: 5.9 μmoles/hr/mg protein

CCCCCO [pentan-1-ol]
oxidation by the purified secondary alcohol dehydrogenase [3, 9]: not oxidized

CCCCCCC(C)O (stereo not drawn) [2-octanol]
oxidation by the purified secondary alcohol dehydrogenase [3, 9]: not oxidized

C=C [Ethylene]
Rate of Product Formation [2]: 1.27 μ moles/hr/mg of protein

C=O [formaldehyde]
relative percent rate of oxidation by SADH [1]: not oxidized

[Zn+2] [Zn^++]
% inhibition of SADH activity [1, 8]: 0%
% inhibition of SADH activity ([1]; purified SADH, each inhibitor 1 mM, measured spectrofluorometrically, listed as zinc): did not stimulate

O=[N+]([O-])[O-].[Ag+] [silver nitrate]
inhibition of secondary alcohol dehydrogenase activity [3]: inhibited

O=C(O)c1cc(SSc2ccc([N+](=O)[O-])c(C(=O)O)c2)ccc1[N+](=O)[O-] [5,5'-dithiobis(2-nitrobenzoic acid)]
% inhibition of SADH activity [1, 8]: 100%
% inhibition of SADH activity ([1]; purified SADH, each inhibitor 1 mM, measured spectrofluorometrically, listed as 5,5'-dithiobis (2-nitrobenzoic acid)): inhibited

CCCCO [butan-1-ol]
oxidation by the purified secondary alcohol dehydrogenase [3]: not oxidized

CCCCCC(C)O (stereo not drawn) [2-Heptanol]
oxidation by the purified secondary alcohol dehydrogenase [3, 9]: not oxidized

O=Cc1ccccc1 [benzaldehyde]
relative percent rate of oxidation by SADH ([1]; 2-butanol = 100%): not oxidized

[Ni+2] [nickel]
% inhibition of SADH activity [1, 8]: 20%

[Cl][Fe]([Cl])[Cl] [Ferric Chloride]
Methane-Oxidizing Activity in presence of metal [7]: 4.8 μmoles/hr/mg protein
Propylene-Oxidizing Activity in presence of metal [7]: 5.8 μmoles/hr/mg protein

[Cl][Cu] [Cuprous Chloride]
Methane-Oxidizing Activity in presence of metal [7]: 7.2 μmoles/hr/mg protein
Propylene-Oxidizing Activity in presence of metal [7]: 9.2 μmoles/hr/mg protein

[Fe+3] [ferric]
% inhibition of SADH activity [1, 8]: 35%

[Mg+2] [Mg^++]
% inhibition of SADH activity [1, 8]: 0%

CCO [ethanol]
oxidation by the purified secondary alcohol dehydrogenase [3]: not oxidized
% inhibition of SADH activity [1]: did not inhibit

[Co+2] [Co^++]
% inhibition of SADH activity [1, 8]: 0%

CC=O [acetaldehyde]
substrate specificity of purified SADH [1]: lower rate
relative percent rate of oxidation by SADH ([1]; 2-butanol = 100%): 4%

CCCC(C)O (stereo not drawn) [2-pentanol]
oxidation by the purified secondary alcohol dehydrogenase [3, 9]: catalyzed the oxidation
substrate specificity of purified SADH [1]: lower rate
relative percent rate of oxidation by SADH ([1]; 2-butanol = 100%): 5%

CC(C)O [2-propanol]
NAD^+ Reduced [3]: 5.4 µmol
Product formed [3]: 5.5 µmol
oxidation by the purified secondary alcohol dehydrogenase [3, 9]: catalyzed the oxidation
substrate specificity of purified SADH [1]: highest
relative percent rate of oxidation by SADH ([1]; 2-butanol = 100%): 85%

C=CC=C [Butadiene]
Rate of Product Formation [2]: 0.63 μ moles/hr/mg of protein
